One assay has as its system 5α-reductase. In words: 5α-reductase inhibition stated in words. The format is biochemical.
Assay [1] concerns the target T1, human 5α-reductase isozyme type 2 (Homo sapiens, UniProt P31213).
T1 construct: expressed in transfected cells; host or cells: Rat-1A cells infected with pMV7 retrovirus; microsomes of these cells
T1 sequence (P31213 1-254): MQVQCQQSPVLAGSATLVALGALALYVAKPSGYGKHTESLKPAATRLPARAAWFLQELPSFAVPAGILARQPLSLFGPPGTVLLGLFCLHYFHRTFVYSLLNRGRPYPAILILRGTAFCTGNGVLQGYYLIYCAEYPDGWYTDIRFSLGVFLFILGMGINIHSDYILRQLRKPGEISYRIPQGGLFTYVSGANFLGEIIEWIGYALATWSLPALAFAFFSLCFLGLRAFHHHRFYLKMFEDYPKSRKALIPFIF
In words: [3H]4-MA binding, human type 2 isozyme expressed in Rat-1A cells. The source says: (§1) The cDNAs for the human type 1 and 2 5α-reductases were isolated from human prostate λZAP II™ cDNA libraries using the published sequence of the 5α-reductases, PCR™ and standard library screening techniques (Sambrook et al., 1989). The type 1 and 2 cDNAs correspond to nucleotides 31-870 and 28-829, respectively, of the published sequences for these 5α-reductases (Anderson and Russell, 1990; Anderson et al., 1991). The type 1 and 2 cDNAs were subcloned into the retroviral expression vector pMV7 (Kirschmeier et al., 1988) and high titer stocks of virus containing the type 1 and 2 cDNAs were generated using the packaging cells BOSC 23 293 (Kirschmeier et al., 1988). Rat.-1A cells (Pear et al., 1993) were infected with virus (Topp, 1981) and cells containing integrated retrovirus were selected for G418-SO4 resistance, (Brown and Scott, 1987).
(§2) Microsomes were prepared as described previously (Liang and Liao, 1992) from the liver of adult Sprague-Dawley female rats or Rat-1A cells expressing a specific type of human 5α-reductase. […] The data presented was based on the rate of reaction.
(§3) [^3 H]4-MA binding assay were described in detail previously (Liang and Liao, 1992; Liang et al., 1983). […] The reaction was started by the addition of 25 μl of microsomes (25 μg protein). After 30-60 min incubation at 0° C., the [^3 H]4-MA bound to microsomes was collected on a Whatman GF/F glass fiber, washed and radioactivity determined (Liang and Liao, 1992).

Assay [2] deals with human type 1 and 2 5α-reductase isozymes (Homo sapiens, UniProt P18405). Conditions: cited from earlier work.
Assay [3] relates to human type 1 and 2 5α-reductase isozymes. Particulars: human; cited from earlier work.
Assay [4] concerns plasma 5α-DHT and prostate. Particulars: BPH patients; cited from earlier work.
Assay [5] concerns the target T2, human 5α-reductase isozyme type 1 (Homo sapiens, UniProt P18405).
T2 construct: expressed in transfected cells; host or cells: Rat-1A cells infected with pMV7 retrovirus; microsomes of these cells
T2 sequence (P18405 1-259): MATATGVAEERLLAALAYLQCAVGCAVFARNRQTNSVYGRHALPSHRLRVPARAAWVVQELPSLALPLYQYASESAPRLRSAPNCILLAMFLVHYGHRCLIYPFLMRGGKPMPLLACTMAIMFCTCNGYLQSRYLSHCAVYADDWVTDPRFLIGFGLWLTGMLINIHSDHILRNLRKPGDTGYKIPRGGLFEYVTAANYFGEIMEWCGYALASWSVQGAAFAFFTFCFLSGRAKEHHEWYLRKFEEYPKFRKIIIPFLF
In words: [3H]4-MA binding, human type 1 isozyme expressed in Rat-1A cells. Particulars: read-out: % Inhibition of [^3 H]4-MA binding.
Description: as §1, §2, §3

The subject of the next assay is scalp baldness. Particulars: cited from earlier work.
In the next assay the target is type 1 5α-reductase (Homo sapiens, UniProt P18405). Particulars: cited from earlier work.
Where [6] appears, read: read-out: % Inhibition of [^3 H]4-MA binding.

As for `O=C(OCc1cc(O)c(O)c(O)c1)c1cc(O)c(O)c(O)c1`, in the assay on 5α-reductase, the “5α-reductase inhibition” value was “potent inhibitor of 5α-reductase”.
Consider `CC(C)(C)NC(=O)[C@H]1CC[C@H]2[C@@H]3CC[C@H]4NC(=O)C=C[C@]4(C)[C@H]3CC[C@]12C` [Finasteride, 17β-N-t-butylcarbamoyl-4-aza-5α-androst-1-en-3-one, reference compound], for which the “inhibition of type 2 isozyme expressed in Rat-1A cells” value in assay [1] is “inhibited the type 2 isozyme”. In assay [1] (setting [6]), the inhibition (usually the percentage by which the read-out fell short of the control) at 0.001 µM is under 10%, the inhibition at 0.003 µM was under 10%, the inhibition at 0.01 µM amounted to 22% and the inhibition at 0.03 µM was 44%. Besides, in assay [1] (setting [6]), the inhibition at 0.1 µM was 67%. Besides, the “sensitivity of type 1 isozyme” value in assay [2] is recorded as “rather insensitive”. Also, the “sensitivity of type 2 vs type 1 isozyme to inhibition (times)” value in assay [3] is on record as 30 times. Besides, the “plasma 5α-DHT and prostate size” value in assay [4] is “decreases the plasma level of 5α-DHT and the size of the prostate”. Besides, in assay [5], the inhibition at 0.001 µM is under 10%, the inhibition at 0.003 µM was under 10%, the inhibition at 0.01 µM is under 10% and the inhibition at 0.03 µM is under 10%. Moreover, the inhibition at 0.1 µM in assay [5] was under 10%. In addition, the “serum 5α-DHT and hair” value with scalp baldness (0.5 mg/day oral, alone or with topical 2% Minoxidil) is given as “reduced serum 5α-DHT level”. Moreover, in the assay with scalp baldness (topical to scalp), the “baldness” value is given as “effective in preventing male pattern baldness”.
Turning to `CN1C(=O)CC[C@@H]2c3ccc(Cl)cc3CC[C@H]21` [LY191704], the “type 1 5α-reductase selectivity” value at type 1 5α-reductase is “selective inhibitor of the type 1 5α-reductase”.

The record behind these values is patent US5605929A, “Methods and compositions for inhibiting 5α-reductase activity” (priority 1995, dated 1997).
